Measured values taken from PMC9950949 (iScience, 2023).
pKd: −log10 of the molar value.

Target: NLRP3 (Homo sapiens, UniProt Q96P20)
Experiment: microscale thermophoresis
Type: binding

Sequence of NLRP3 (Q96P20 whole entry): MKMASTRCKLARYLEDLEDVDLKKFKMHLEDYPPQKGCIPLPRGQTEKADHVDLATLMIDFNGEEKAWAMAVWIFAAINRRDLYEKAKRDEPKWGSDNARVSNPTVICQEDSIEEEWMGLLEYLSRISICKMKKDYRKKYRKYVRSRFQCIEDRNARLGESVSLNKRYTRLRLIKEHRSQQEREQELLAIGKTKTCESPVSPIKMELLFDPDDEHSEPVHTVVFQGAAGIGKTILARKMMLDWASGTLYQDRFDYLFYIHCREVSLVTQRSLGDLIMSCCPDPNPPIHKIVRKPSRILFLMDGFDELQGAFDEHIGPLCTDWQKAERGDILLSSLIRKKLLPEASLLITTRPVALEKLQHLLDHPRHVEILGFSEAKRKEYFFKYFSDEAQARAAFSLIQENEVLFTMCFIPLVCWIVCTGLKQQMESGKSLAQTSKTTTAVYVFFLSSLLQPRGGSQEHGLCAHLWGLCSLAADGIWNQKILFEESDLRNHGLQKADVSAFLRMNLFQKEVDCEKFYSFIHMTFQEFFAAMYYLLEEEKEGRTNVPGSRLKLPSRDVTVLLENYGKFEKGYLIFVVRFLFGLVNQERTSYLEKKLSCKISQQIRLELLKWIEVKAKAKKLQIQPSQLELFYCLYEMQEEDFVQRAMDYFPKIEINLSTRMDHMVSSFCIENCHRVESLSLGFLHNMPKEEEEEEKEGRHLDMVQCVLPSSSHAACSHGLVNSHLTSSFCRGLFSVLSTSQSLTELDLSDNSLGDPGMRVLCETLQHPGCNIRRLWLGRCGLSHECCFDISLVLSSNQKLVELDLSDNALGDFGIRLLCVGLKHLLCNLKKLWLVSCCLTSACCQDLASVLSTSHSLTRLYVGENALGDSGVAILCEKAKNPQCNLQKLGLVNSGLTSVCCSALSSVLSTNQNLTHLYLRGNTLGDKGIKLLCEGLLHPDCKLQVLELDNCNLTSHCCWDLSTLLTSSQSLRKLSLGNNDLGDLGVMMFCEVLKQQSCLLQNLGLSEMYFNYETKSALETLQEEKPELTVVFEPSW

- pKd: ~6.43
SMILES: O=C1NC(=O)[C@@H](c2cn3c4c(cccc24)CCC3)[C@@H]1c1c[nH]c2ccccc12 [Tivantinib]
